PubChem BioAssay AID1259407 (Chemical Carcinogenesis Research Information System (CCRIS), 2018)
Activity calls are given as the source filed them. The rule behind the calls is not given here.

Test system: CCRIS mutagenicity, Ames/micronucleus/aberration tests
Assay: CCRIS mutagenicity studies
[1] = Test System: AMES SALMONELLA TYPHIMURIUM, Strain/Indicator: TA98, Metabolic Activation: NONE, Method: PREINCUBATION
[2] = Test System: AMES SALMONELLA TYPHIMURIUM, Strain/Indicator: TA100, Metabolic Activation: NONE, Method: PREINCUBATION
[3] = Test System: AMES SALMONELLA TYPHIMURIUM, Strain/Indicator: TA1535, Metabolic Activation: NONE, Method: PREINCUBATION
[4] = Test System: AMES SALMONELLA TYPHIMURIUM, Strain/Indicator: TA1537, Metabolic Activation: NONE, Method: PREINCUBATION

## O=S(=O)(c1ccc(O)cc1)c1ccc(O)cc1
Test System: AMES SALMONELLA TYPHIMURIUM, Strain/Indicator: TA98, Metabolic Activation: HAMSTER, LIVER, S-9, AROCLOR 1254 (10%), Method: STANDARD PLATE
  mutagenic call: inactive; negative
[1]
  mutagenic call: inactive; negative
Test System: AMES SALMONELLA TYPHIMURIUM, Strain/Indicator: TA98, Metabolic Activation: NONE, Method: STANDARD PLATE
  mutagenic call: inactive; negative
Test System: AMES SALMONELLA TYPHIMURIUM, Strain/Indicator: TA98, Metabolic Activation: RAT LIVER S-9, PHENOBARBITAL AND BETA-NAPHTHOFLAVONE, Method: PREINCUBATION
  mutagenic call: inactive; negative
Test System: AMES SALMONELLA TYPHIMURIUM, Strain/Indicator: TA98, Metabolic Activation: RAT, LIVER, S-9, AROCLOR 1254 (10%), Method: STANDARD PLATE
  mutagenic call: inactive; negative
Test System: AMES SALMONELLA TYPHIMURIUM, Strain/Indicator: TA100, Metabolic Activation: HAMSTER, LIVER, S-9, AROCLOR 1254 (10%), Method: STANDARD PLATE
  mutagenic call: inactive; negative
[2]
  mutagenic call: inactive; negative
Test System: AMES SALMONELLA TYPHIMURIUM, Strain/Indicator: TA100, Metabolic Activation: NONE, Method: STANDARD PLATE
  mutagenic call: inactive; negative
Test System: AMES SALMONELLA TYPHIMURIUM, Strain/Indicator: TA100, Metabolic Activation: RAT LIVER S-9, PHENOBARBITAL AND BETA-NAPHTHOFLAVONE, Method: PREINCUBATION
  mutagenic call: inactive; negative
Test System: AMES SALMONELLA TYPHIMURIUM, Strain/Indicator: TA100, Metabolic Activation: RAT, LIVER, S-9, AROCLOR 1254 (10%), Method: STANDARD PLATE
  mutagenic call: inactive; negative
Test System: AMES SALMONELLA TYPHIMURIUM, Strain/Indicator: TA1535, Metabolic Activation: HAMSTER, LIVER, S-9, AROCLOR 1254 (10%), Method: STANDARD PLATE
  mutagenic call: inactive; negative
[3]
  mutagenic call: inactive; negative
Test System: AMES SALMONELLA TYPHIMURIUM, Strain/Indicator: TA1535, Metabolic Activation: NONE, Method: STANDARD PLATE
  mutagenic call: inactive; negative
Test System: AMES SALMONELLA TYPHIMURIUM, Strain/Indicator: TA1535, Metabolic Activation: RAT LIVER S-9, PHENOBARBITAL AND BETA-NAPHTHOFLAVONE, Method: PREINCUBATION
  mutagenic call: inactive; negative
Test System: AMES SALMONELLA TYPHIMURIUM, Strain/Indicator: TA1535, Metabolic Activation: RAT, LIVER, S-9, AROCLOR 1254 (10%), Method: STANDARD PLATE
  mutagenic call: inactive; negative
Test System: AMES SALMONELLA TYPHIMURIUM, Strain/Indicator: TA1537, Metabolic Activation: HAMSTER, LIVER, S-9, AROCLOR 1254 (10%), Method: STANDARD PLATE
  mutagenic call: inactive; negative
[4]
  mutagenic call: inactive; negative
Test System: AMES SALMONELLA TYPHIMURIUM, Strain/Indicator: TA1537, Metabolic Activation: NONE, Method: STANDARD PLATE
  mutagenic call: inactive; negative
Test System: AMES SALMONELLA TYPHIMURIUM, Strain/Indicator: TA1537, Metabolic Activation: RAT LIVER S-9, PHENOBARBITAL AND BETA-NAPHTHOFLAVONE, Method: PREINCUBATION
  mutagenic call: inactive; negative
Test System: AMES SALMONELLA TYPHIMURIUM, Strain/Indicator: TA1537, Metabolic Activation: RAT, LIVER, S-9, AROCLOR 1254 (10%), Method: STANDARD PLATE
  mutagenic call: inactive; negative
Test System: AMES SALMONELLA TYPHIMURIUM, Strain/Indicator: TA1538, Metabolic Activation: HAMSTER, LIVER, S-9, AROCLOR 1254 (10%), Method: STANDARD PLATE
  mutagenic call: inactive; negative
Test System: AMES SALMONELLA TYPHIMURIUM, Strain/Indicator: TA1538, Metabolic Activation: NONE, Method: STANDARD PLATE
  mutagenic call: inactive; negative
Test System: AMES SALMONELLA TYPHIMURIUM, Strain/Indicator: TA1538, Metabolic Activation: RAT, LIVER, S-9, AROCLOR 1254 (10%), Method: STANDARD PLATE
  mutagenic call: inactive; negative
Test System: E. COLI, Strain/Indicator: WP2UVRA, Metabolic Activation: NONE, Method: PREINCUBATION
  mutagenic call: inactive; negative
Test System: E. COLI, Strain/Indicator: WP2UVRA, Metabolic Activation: RAT LIVER S-9, PHENOBARBITAL AND BETA-NAPHTHOFLAVONE, Method: PREINCUBATION
  mutagenic call: inactive; negative
Test System: MOUSE LYMPHOMA, Strain/Indicator: L5178Y (TK+/TK-), Metabolic Activation: NONE, Method: SUSPENSION/PLATE
  mutagenic call: inactive; positive. reevaluation of results: negative
Test System: MOUSE LYMPHOMA, Strain/Indicator: L5178Y (TK+/TK-), Metabolic Activation: RAT, LIVER, S-9, AROCLOR 1254, Method: SUSPENSION/PLATE
  mutagenic call: inactive; negative

## O=C(COc1ccc(Cl)cc1Cl)N[C@@H](Cc1c[nH]c2ccccc12)C(=O)O
Test System: AMES SALMONELLA TYPHIMURIUM, Strain/Indicator: TA97, Metabolic Activation: RAT, LIVER, S-9, AROCLOR 1254, Method: STANDARD PLATE
  mutagenic call: inactive; negative
Test System: AMES SALMONELLA TYPHIMURIUM, Strain/Indicator: TA97, Metabolic Activation: WOODCHUCK, LIVER, S-9, 3-METHYLCHOLANTHRENE, Method: STANDARD PLATE
  mutagenic call: inactive; negative
Test System: AMES SALMONELLA TYPHIMURIUM, Strain/Indicator: TA98, Metabolic Activation: RAT, LIVER, S-9, AROCLOR 1254, Method: STANDARD PLATE
  mutagenic call: inactive; negative
Test System: AMES SALMONELLA TYPHIMURIUM, Strain/Indicator: TA98, Metabolic Activation: WOODCHUCK, LIVER, S-9, 3-METHYLCHOLANTHRENE, Method: STANDARD PLATE
  mutagenic call: inactive; negative
Test System: AMES SALMONELLA TYPHIMURIUM, Strain/Indicator: TA100, Metabolic Activation: RAT, LIVER, S-9, AROCLOR 1254, Method: STANDARD PLATE
  mutagenic call: inactive; negative
Test System: AMES SALMONELLA TYPHIMURIUM, Strain/Indicator: TA100, Metabolic Activation: WOODCHUCK, LIVER, S-9, 3-METHYLCHOLANTHRENE, Method: STANDARD PLATE
  mutagenic call: inactive; negative
Test System: AMES SALMONELLA TYPHIMURIUM, Strain/Indicator: TA1535, Metabolic Activation: RAT, LIVER, S-9, AROCLOR 1254, Method: STANDARD PLATE
  mutagenic call: inactive; negative
Test System: AMES SALMONELLA TYPHIMURIUM, Strain/Indicator: TA1535, Metabolic Activation: WOODCHUCK, LIVER, S-9, 3-METHYLCHOLANTHRENE, Method: STANDARD PLATE
  mutagenic call: inactive; negative
Test System: AMES SALMONELLA TYPHIMURIUM, Strain/Indicator: TA1538, Metabolic Activation: RAT, LIVER, S-9, AROCLOR 1254, Method: STANDARD PLATE
  mutagenic call: inactive; negative
Test System: AMES SALMONELLA TYPHIMURIUM, Strain/Indicator: TA1538, Metabolic Activation: WOODCHUCK, LIVER, S-9, 3-METHYLCHOLANTHRENE, Method: STANDARD PLATE
  mutagenic call: inactive; negative

## CN(C)C(=O)Nc1ccc(Cl)cc1
End Point: IN VITRO CHROMOSOMAL ABERRATIONS, Test System: CHINESE HAMSTER OVARY CELLS, Metabolic Activation: NONE
  mutagenic call: inactive; negative; precipitation occurred at all doses
End Point: IN VITRO CHROMOSOMAL ABERRATIONS, Test System: CHINESE HAMSTER OVARY CELLS, Metabolic Activation: RAT, LIVER, S-9, AROCLOR 1254
  mutagenic call: active; positive; precipitation occurred at all doses
Test System: AMES SALMONELLA TYPHIMURIUM, Strain/Indicator: TA98, Metabolic Activation: HAMSTER, LIVER, S-9, AROCLOR 1254, Method: PREINCUBATION
  mutagenic call: inactive; negative
[1]
  mutagenic call: inactive; negative
Test System: AMES SALMONELLA TYPHIMURIUM, Strain/Indicator: TA98, Metabolic Activation: RAT, LIVER, S-9, AROCLOR 1254, Method: PREINCUBATION
  mutagenic call: inactive; negative
Test System: AMES SALMONELLA TYPHIMURIUM, Strain/Indicator: TA100, Metabolic Activation: HAMSTER, LIVER, S-9, AROCLOR 1254, Method: PREINCUBATION
  mutagenic call: inactive; negative
[2]
  mutagenic call: inactive; negative
Test System: AMES SALMONELLA TYPHIMURIUM, Strain/Indicator: TA100, Metabolic Activation: RAT, LIVER, S-9, AROCLOR 1254, Method: PREINCUBATION
  mutagenic call: inactive; negative
Test System: AMES SALMONELLA TYPHIMURIUM, Strain/Indicator: TA1535, Metabolic Activation: HAMSTER, LIVER, S-9, AROCLOR 1254, Method: PREINCUBATION
  mutagenic call: inactive; negative
[3]
  mutagenic call: inactive; negative
Test System: AMES SALMONELLA TYPHIMURIUM, Strain/Indicator: TA1535, Metabolic Activation: RAT, LIVER, S-9, AROCLOR 1254, Method: PREINCUBATION
  mutagenic call: inactive; negative
Test System: AMES SALMONELLA TYPHIMURIUM, Strain/Indicator: TA1537, Metabolic Activation: HAMSTER, LIVER, S-9, AROCLOR 1254, Method: PREINCUBATION
  mutagenic call: inactive; negative
[4]
  mutagenic call: inactive; negative
Test System: AMES SALMONELLA TYPHIMURIUM, Strain/Indicator: TA1537, Metabolic Activation: RAT, LIVER, S-9, AROCLOR 1254, Method: PREINCUBATION
  mutagenic call: inactive; negative

## COCCN(N=O)C(N)=O
Test System: E. COLI B, Strain/Indicator: H/R30R, Metabolic Activation: NONE
  mutagenic call: active; positive
Test System: E. COLI B, Strain/Indicator: HS30R, Metabolic Activation: NONE
  mutagenic call: active; positive
